# In patent publication US20090306059A1, “CYCLIC AMINE DERIVATIVE HAVING SUBSTITUTED ALKYL GROUP” (priority 2005, published 2009):
# Structures can show the parent of a compound that is named as a salt.
# Experiments:
# [1] = test system: platelet aggregation caused by ADP in platelet-rich plasma (PRP); test: Test Example 1: in vitro platelet aggregation inhibitory effect; format: cell-based, rat (male Sprague-Dawley); details: 10 μg/ml test compound; rat PRP; ADP final concentration 10 μM; maximum platelet aggregation ratio
# Method: Male Sprague-Dawley rats (8-week old, Japan SLC, Inc.), 3 to 4 animals per group, were used for the test. The platelet aggregation was measured with an automatic platelet aggregometer (MCM Hema Tracer 313M, MC Medical, Inc.) by a partially modified method of Born et al., The Journal of Physiology, Vol. 168, Section 178 (1963). 6.3 ml of blood was sampled from the ventral aorta of a rat anesthetized with pentobarbital (40 mg/kg) using 3.8% (w/v) sodium citrate solution (0.7 ml) as an anticoagulant. The obtained blood containing citrate was centrifuged (230 g, 15 minutes, room temperature) to separate a platelet-rich plasma (hereinbelow abbreviated as PRP). The blood after the separation of PRP was further centrifuged (2,000 g, 10 minutes, room temperature) to separate a platelet-poor plasma (hereinbelow abbreviated as PPP). After the number of blood platelet in PRP was measured with a multi-item automatic blood corpuscle counter (KX-21N, Sysmex Corporation), PPP was added thereto to adjust the blood platelet count to 5×10^8/ml. After PRP (239 μl) was pipetted into cuvettes, test compounds (1 μl) dissolved in dimethylsulfoxide (DMSO) were added to PRP and the cuvettes were set in the automatic platelet aggregometer. DMSO (1 μl) was added in place of the test compounds for the control group. After preliminary warming (37° C.) for 1.5 minutes, 10 μl of adenosine 5′-diphosphate (ADP) solution (final concentration at 10 μM) was added to cause platelet aggregation. Platelet aggregation was measured for 5 minutes and the maximum platelet aggregation ratio was determined.
# [2] = test system: platelet aggregation caused by ADP in platelet-rich plasma (PRP) after oral administration; test: Test Example 2: ex vivo platelet aggregation inhibitory effect; format: in vivo, rat (male Sprague-Dawley); details: 4 hours before blood sampling, rat PRP, ADP final concentration 3 μM, maximum platelet aggregation ratio; for inhibition at 10 mg/kg: 10 mg/kg orally, read-out: Test Example 1 (% inhibition) 10 mg/kg
# Method: Male Sprague-Dawley rats (8-week old, Japan SLC, Inc.), 3 to 4 animals per group, were used for the test. The platelet aggregation was measured with an automatic platelet aggregometer (MCM Hema Tracer 313M, MC Medical, Inc.) by a partially modified method of Bom et al., The Journal of Physiology, Vol. 168, Section 178 (1963). Test compounds suspended in 5% Arabian gum solution or 10% dimethylacetamide/64% polyethylene glycol 400/16% Tween 80 solution were orally administered in a dose ratio of 1 mL/kg 4 hours before blood sampling. Vehicle was orally administered 4 hours in a dose ratio of 1 mL/kg before the sampling of the blood for the control group. 6.3 ml of blood was sampled from the ventral aorta of a rat anesthetized with pentobarbital (40 mg/kg) using 3.8% (w/v) sodium citrate solution (0.7 ml) as an anticoagulant. The obtained blood containing citrate was centrifuged (230 g, 15 minutes, room temperature) to separate PRP. The blood after the separation of PRP was further centrifuged (2,000 g, 10 minutes, room temperature) to separate PPP. After the number of blood platelet in PRP was measured with a multi-item automatic blood corpuscle counter (KX-21N, Sysmex Corporation), PPP was added thereto to adjust the blood platelet to 5×10^8/ml. After PRP (240 μl) was pipetted into cuvettes, the cuvettes were set in the automatic platelet aggregometer. After preliminary warming (37° C.) for 1.5 minutes, 10 μl of ADP solution (final concentration 3 μM) was added to cause platelet aggregation. Platelet aggregation was measured for 5 minutes and the maximum platelet aggregation ratio was determined.
SMILES,inhibition at 10 µg/mL [1] [%],inhibition at 10 mg/kg [2] [%],"inhibition at 3 mg/kg ([2]; 3 mg/kg orally, read-out: Test Example 1 (% inhibition) 3 mg/kg) [%]"
"O=C(O)CN1CCN(C/C=C2\CN(C(C(=O)C3CC3)c3ccccc3F)CCC2S)CC1=O (stereo not shown) [Example 15, (E)-3-{2-[4-(Carboxymethyl)-3-oxopiperazin-1-yl]ethylidene}-1-[2-cyclopropyl-1-(2-fluorophenyl)-2-oxoethyl]-4-sulfanylpiperidine dihydrochloride]",90,,
"O=C(O)Cc1cnn(C/C=C2\CN(C(C(=O)C3CC3)c3ccccc3F)CCC2S)c1 (stereo not shown) [Example 74, (E)-3-{2-[4-(Carboxymethyl)-1H-pyrazol-1-yl]ethylidene}-1-[2-cyclopropyl-1-(2-fluorophenyl)-2-oxoethyl]-4-sulfanylpiperidine hydrochloride]",80,100,
"O=C(O)c1cn(C/C=C2\CN(C(C(=O)C3CC3)c3ccccc3F)CCC2S)nn1 (stereo not shown) [Example 51, (E)-3-[2-(4-Carboxy-1H-1,2,3-triazol-1-yl)ethylidene]-1-[2-cyclopropyl-1-(2-fluorophenyl)-2-oxoethyl]-4-sulfanylpiperidine hydrochloride]",81,,
"CCOC(=O)c1cn(C/C=C2\CN(C(C(=O)C3CC3)c3ccccc3F)CCC2S)nn1 (stereo not shown) [Example 50, (E)-1-[2-Cyclopropyl-1-(2-fluorophenyl)-2-oxoethyl]-3-[2-(4-ethoxycarbonyl-1H-1,2,3-triazol-1-yl)ethylidene]-4-sulfanylpiperidine hydrochloride]",79,,
"CN(C/C=C1\CN(C(C(=O)C2CC2)c2ccccc2F)CCC1S)CC(=O)O (stereo not shown) [Example 83, (E)-3-{2-[N-(Carboxymethyl)-N-methylamino]ethylidene}-1-[2-cyclopropyl-1-(2-fluorophenyl)-2-oxoethyl]-4-sulfanylpiperidine dihydrochloride]",68,,
"CN(C/C=C1/CN(C(C(=O)C2CC2)c2ccccc2F)CCC1S)CCCC(=O)O (stereo not shown) [Example 91, (Z)-3-(2-{N-[3-(Carboxy)propyl]-N-methylamino}ethylidene)-1-[2-cyclopropyl-1-(2-fluorophenyl)-2-oxoethyl]-4-sulfanylpiperidine dihydrochloride]",74,,
"COC(=O)CCN1CCN(C/C=C2\CN(C(C(=O)C3CC3)c3ccccc3F)CCC2S)CC1=O (stereo not shown) [Example 18, (E)-1-[2-Cyclopropyl-1-(2-fluorophenyl)-2-oxoethyl]-3-(2-{4-[2-(methoxycarbonyl)ethyl]-3-oxopiperazin-1-yl}ethylidene)-4-sulfanylpiperidine dihydrochloride]",73,74,
"O=C(O)CCN1CCN(C/C=C2\CN(C(C(=O)C3CC3)c3ccccc3F)CCC2S)C(=O)C1 (stereo not shown) [Example 23, (E)-3-(2-{4-[2-(Carboxyethyl)]-2-oxopiperazin-1-yl}ethylidene)-1-[2-cyclopropyl-1-(2-fluorophenyl)-2-oxoethyl]-4-sulfanylpiperidine dihydrochloride]",77,72,
"CCOC(=O)CCN1CCN(C/C=C2\CN(C(C(=O)C3CC3)c3ccccc3F)CCC2S)C(=O)C1 (stereo not shown) [Example 22, (E)-1-[2-Cyclopropyl-1-(2-fluorophenyl)-2-oxoethyl]-3-(2-{4-[2-(ethoxycarbonyl)ethyl]-2-oxopiperazin-1-yl}ethylidene)-4-sulfanylpiperidine dihydrochloride]",67,79,
"CN(C/C=C1/CN(C(C(=O)C2CC2)c2ccccc2F)CCC1S)CC(=O)O (stereo not shown) [Example 86, (Z)-3-{2-[N-(Carboxymethyl)-N-methylamino]ethylidene}-1-[2-cyclopropyl-1-(2-fluorophenyl)-2-oxoethyl]-4-sulfanylpiperidine dihydrochloride]",82,,
"O=C(O)c1cnn(C/C=C2/CN(C(C(=O)C3CC3)c3ccccc3F)CCC2S)c1 (stereo not shown) [Example 111, (Z)-3-[2-(4-Carboxy-1H-pyrazol-1-yl)ethylidene]-1-[2-cyclopropyl-1-(2-fluorophenyl)-2-oxoethyl]-4-sulfanylpiperidine hydrochloride]",82,82,
"O=C(O)c1cnn(C/C=C2\CN(C(C(=O)C3CC3)c3ccccc3F)CCC2S)c1 (stereo not shown) [Example 44, (E)-3-[2-(4-Carboxy-1H-pyrazol-1-yl)ethylidene]-1-[2-cyclopropyl-1-(2-fluorophenyl)-2-oxoethyl]-4-sulfanylpiperidine hydrochloride]",81,,61
"COC(=O)[C@@H]1CCCN1C/C=C1\CN(C(C(=O)C2CC2)c2ccccc2F)CCC1SC(C)=O (stereo partly drawn) [Example 25, (E)-4-(Acetylsulfanyl)-1-[2-cyclopropyl-1-(2-fluorophenyl)-2-oxoethyl]-3-{2-[(2S)-(methoxycarbonyl)pyrrolidin-1-yl]ethylidene}piperidine dihydrochloride]",,92,
"O=C(O)CCN1CCN(C/C=C2\CN(C(C(=O)C3CC3)c3ccccc3F)CCC2S)CC1=O (stereo not shown) [Example 19, (E)-3-(2-{4-[2-(Carboxyethyl)]-3-oxopiperazin-1-yl}ethylidene)-1-[2-cyclopropyl-1-(2-fluorophenyl)-2-oxoethyl]-4-sulfanylpiperidine dihydrochloride]",77,60,
"CC(=O)SC1CCN(C(C(=O)C2CC2)c2ccccc2F)C/C1=C\CN1CCN(CCC(=O)O)CC1=O (stereo not shown) [Example 24, (E)-4-(Acetylsulfanyl)-3-(2-{4-[2-(carboxyethyl)]-2-oxopiperazin-1-yl}ethylidene)-1-[2-cyclopropyl-1-(2-fluorophenyl)-2-oxoethyl]piperidine dihydrochloride]",,85,
